Active and inactive are the calls of the source.
Tests used:
[1] = target: Oxysterols receptor LXR-beta (Homo sapiens, UniProt P55055); assay type: functional, cell-based;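 note: Cell-based luminescence dose-response assay of agonist activity at LXR, run as a confirmatory counterscreen to a daf-12 agonist screen; HEK293 cells with Gal4-LXR fusion and GAL4-driven luciferase reporter; agonist potency from rising luciferase signal of a Gal4-LXR reporter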
[2] = cells
[3] = target: Bifunctional protein GlmU (Mycobacterium tuberculosis, UniProt P9WMN3); experiment: Inhibitors of Mycobacterial Glucosamine-1-phosphate acetyl transferase (GlmU). Secondary screen.; design: species or system Mycobacterium tuberculosis H37Rv
Sequence of Bifunctional protein GlmU (P9WMN3 whole entry): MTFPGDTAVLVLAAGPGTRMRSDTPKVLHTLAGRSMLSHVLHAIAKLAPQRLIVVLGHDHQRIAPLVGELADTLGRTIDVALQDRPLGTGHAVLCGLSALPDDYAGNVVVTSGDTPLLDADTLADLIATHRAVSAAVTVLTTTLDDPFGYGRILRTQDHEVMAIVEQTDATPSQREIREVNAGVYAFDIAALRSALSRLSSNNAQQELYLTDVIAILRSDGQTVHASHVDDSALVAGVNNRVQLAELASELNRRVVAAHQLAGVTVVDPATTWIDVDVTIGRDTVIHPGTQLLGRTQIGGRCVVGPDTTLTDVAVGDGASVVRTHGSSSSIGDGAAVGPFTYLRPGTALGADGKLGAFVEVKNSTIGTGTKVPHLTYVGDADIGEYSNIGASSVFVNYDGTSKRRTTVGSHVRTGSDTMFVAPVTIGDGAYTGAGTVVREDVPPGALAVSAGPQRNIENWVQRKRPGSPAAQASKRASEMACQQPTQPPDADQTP

[4] = growth inhibition of yeast DHODH-expressing 3D7 parasites – SYBR Green, dry powder samples, dose response (AID 1159570); assay type: functional, cell-based;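 note: parasite growth measured after 72 hours of compound exposure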
[5] = P. falciparum Dd2 growth inhibitors, dose response, SYBR Green, cherry-picked samples (AID 1159567); assay type: functional, cell-based
[6] = Dd2 malaria parasite growth inhibition potency – SYBR Green, dry powder samples, dose response (AID 1159566); assay type: functional, cell-based;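 note: potency for growth inhibition with lower SYBR green DNA signal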
[7] = growth inhibition of PfATP4-mutant resistant parasites – NITD609-resistant line, SYBR Green, dry powder, dose response (AID 1159571); assay type: functional, cell-based;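 note: parasites synchronized at ring stage by sorbitol before testing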
[8] = target: Photoreceptor-specific nuclear receptor (Homo sapiens, UniProt Q9Y5X4); assay type: functional, cell-based;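 note: CHO-S cells with Gal4-NCOR and VP16-NR2E3 two-hybrid luciferase reporter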
Sequence of Photoreceptor-specific nuclear receptor (Q9Y5X4 whole entry, the tested form may be a part): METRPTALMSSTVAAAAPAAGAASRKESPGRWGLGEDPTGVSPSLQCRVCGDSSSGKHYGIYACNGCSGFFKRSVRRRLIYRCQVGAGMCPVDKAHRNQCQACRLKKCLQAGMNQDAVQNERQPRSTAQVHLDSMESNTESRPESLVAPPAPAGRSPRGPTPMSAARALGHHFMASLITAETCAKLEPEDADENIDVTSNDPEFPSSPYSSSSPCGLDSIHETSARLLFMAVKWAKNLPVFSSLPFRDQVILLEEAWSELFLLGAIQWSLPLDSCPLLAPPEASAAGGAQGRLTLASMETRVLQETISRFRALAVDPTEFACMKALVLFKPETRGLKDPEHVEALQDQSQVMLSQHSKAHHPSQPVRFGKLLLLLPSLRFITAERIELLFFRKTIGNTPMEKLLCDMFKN

[9] = rise of 2N DNA cells, HeLa – IC50, dose response (AID 1117349); assay type: functional, cell-based
[10] = RKO cell viability reduction, dose response, CellTiter-Glo luminescence (AID 1117322); assay type: functional
[11] = cytotoxicity toward HCT116 cells – cell-based, CellTiter-Glo luminescence, IC50, dose response (AID 1117332); assay type: functional; conditions: HCT-116
[12] = SNU-C1 cell viability reduction, dose response, CellTiter-Glo luminescence (AID 1117323); assay type: functional, cell-based
[13] = glucagon-like peptide-1 release potency in STC-1, concentration-response, half-maximal inhibitory concentration in the STC-1 line (AID 1117345); assay type: functional, cell-based
[14] = cytotoxicity toward Colo320 cells – cell-based, CellTiter-Glo luminescence, IC50, dose response (AID 1117334); assay type: functional; conditions: COLO 320
[15] = rise of 4N DNA cells, HeLa – IC50, dose response (AID 1117351); assay type: functional, cell-based
[16] = cytotoxicity toward HT-29 cells – cell-based, CellTiter-Glo luminescence, IC50, dose response (AID 1117330); assay type: functional
[17] = Reduced DLD-1 viability, concentration-response, CellTiter-Glo luminescence (AID 1117352); assay type: functional
[18] = HCT116 cell viability decrease, GSK3B pretreatment – CellTiter-Glo, IC50, dose response (AID 1117339); assay type: functional; conditions: HCT-116
[19] = Potency on glucagon-like peptide 1 release, dose-response in NCI-H716 cell line, half maximal inhibitory concentration (AID 1117344); assay type: functional, cell-based
[20] = CellTiter-Glo luminescence survival assay, SW480 colon tumor line, concentration-response curve, half-maximal inhibitory concentration (AID 1117338); assay type: functional
[21] = viability inhibitors of stage V gametocytes – luminescence, dose response (AID 1117278); assay type: functional, cell-based;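 note: gametocytes exposed to compound for 24 hours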
[22] = viability loss in human Jurkat cells – cell-based, luminescence, cytotoxicity control for P. falciparum gametocyte viability project, dose response (AID 1117277); assay type: functional;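 note: potency reflects loss of cellular ATP meaning fewer viable cells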
[23] = general mammalian cell viability loss – inhibitor set, cherry-pick, set 2, cytotoxicity control for miR-122 modulator project, dose response (AID 720697); assay type: functional, cell-based

Sequence of Oxysterols receptor LXR-beta (P55055 whole entry, the tested form may be a part): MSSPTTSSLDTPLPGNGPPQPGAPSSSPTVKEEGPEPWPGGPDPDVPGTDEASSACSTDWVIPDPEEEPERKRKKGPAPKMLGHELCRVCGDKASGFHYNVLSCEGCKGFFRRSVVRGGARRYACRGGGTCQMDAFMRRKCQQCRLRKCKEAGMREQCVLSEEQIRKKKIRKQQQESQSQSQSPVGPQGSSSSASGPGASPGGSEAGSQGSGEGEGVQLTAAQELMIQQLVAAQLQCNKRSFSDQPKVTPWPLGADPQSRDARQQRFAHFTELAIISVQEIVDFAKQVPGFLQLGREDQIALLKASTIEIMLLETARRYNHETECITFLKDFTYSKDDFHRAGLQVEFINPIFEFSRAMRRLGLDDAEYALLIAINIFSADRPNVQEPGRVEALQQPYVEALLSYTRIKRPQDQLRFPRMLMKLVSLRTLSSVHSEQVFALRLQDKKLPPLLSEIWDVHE

Cc1nn(-c2ccc(Cl)cc2)c(=O)c2ccccc12
EC50 [1]: > 67.5 µM (inactive) | EC50 [2]: > 67.5 µM (inactive)

O=C1CCCC(=O)C1=NNc1cccc(C(=O)O)c1
IC50 [3]: 120 µM (active)

C[C@H](CO)N1C[C@H](C)[C@@H](CN(C)C(=O)Nc2ccc(-c3ccccc3)cc2)OCc2ccccc2-c2c(n(C)c3ccccc23)C1=O
AC50 [4]: 0.684 µM (active) | AC50 [5]: 1.41 µM (active) | AC50 [6]: 0.544 µM (active) | AC50 [7]: 0.577 µM (active)

CCC(C)(C)C(=O)O[C@H]1C[C@@H](C)C=C2C=C[C@H](C)[C@H](CC[C@@H]3C[C@@H](O)CC(=O)O3)[C@H]21 [SIMVASTATIN]
IC50 [8]: 1.16 µM (active) | IC50 [9]: > 10 µM (inactive) | IC50 [10]: > 20 µM (inactive) | IC50 [11]: > 20 µM (inactive) | IC50 [12]: > 20 µM (inactive) | IC50 [13]: 3.29 µM (active) | IC50 [14]: 4.94 µM (active) | IC50 [15]: > 10 µM (inactive) | IC50 [16]: > 20 µM (inactive) | IC50 [17]: > 20 µM (inactive) | IC50 [18]: 4.73 µM (active) | IC50 [19]: 21.5 µM (inactive)

[H]/C=C\c1c(C)c2cc3nc(cc4[nH]c(cc5nc(cc1[nH]2)C(C)=C5CCC(=O)O)c(CCC(=O)OC)c4C)[C@@]1(C)C3=CC=C(C(=O)OC)[C@@H]1C(=O)OC
IC50 [20]: > 6.67 µM (inactive) | IC50 [10]: 3.53 µM (active) | IC50 [11]: 5.65 µM (inactive) | IC50 [12]: 5.85 µM (inactive) | IC50 [14]: 9.62 µM (inactive) | IC50 [16]: 3.94 µM (active) | IC50 [18]: 4.26 µM (active)

O=c1c2ccccc2ncn1CCCCOc1ccc(Br)cc1
IC50 [21]: > 109 µM (inactive) | IC50 [22]: > 83.3 µM (inactive)

COCC(=O)Nc1ccc2c(c1)C(=O)N(C)[C@@H]1CC[C@@H](CC(=O)OC)O[C@@H]1CO2
AC50 [23]: < 0.195 µM (active)

O=C(Nc1cccc(C(=O)N2CCOCC2)c1)c1ccccc1
IC50 [21]: > 109 µM (inactive) | IC50 [22]: > 83.3 µM (inactive)

— ChEMBL document CHEMBL1201862, “PubChem BioAssay data set” (2004)
